Experimental data from ChEMBL document CHEMBL5316328, “Discovery of AXL Degraders with Improved Potencies in Triple-Negative Breast Cancer (TNBC) Cells” (J Med Chem, 2023).

test system: MDA-MB-453; assay: Antiproliferative activity against human MDA-MB-453 cells assessed as inhibition of cell growth incubated for 72 hrs by CCK8 assay; assay type: functional, cell-based; conditions: MDA-MB-453, 72 h

Row | SMILES | IC50 [µM]
1 | CCc1ccc2c(c1)c(=O)c(C(=O)Nc1ccc(Oc3ncnc4cc(OCCCCCC(=O)Nc5ccc6c(c5)CN(C5CCC(=O)N(C)C5=O)C6=O)c(OC)cc34)c(F)c1)c(C)n2C (centres undefined) | > 5

biological target: von Hippel-Lindau disease tumor suppressor/Tyrosine-protein kinase receptor UFO (Homo sapiens, UniProt P30530+P40337); assay: PROTAC activity at VHL/AXL in human MDA-MB-231 cells assessed as induction of AXL degradation incubated for 24 hrs by immunoblot analysis; assay type: cell-based; conditions: not given
Sequence (P30530 whole entry): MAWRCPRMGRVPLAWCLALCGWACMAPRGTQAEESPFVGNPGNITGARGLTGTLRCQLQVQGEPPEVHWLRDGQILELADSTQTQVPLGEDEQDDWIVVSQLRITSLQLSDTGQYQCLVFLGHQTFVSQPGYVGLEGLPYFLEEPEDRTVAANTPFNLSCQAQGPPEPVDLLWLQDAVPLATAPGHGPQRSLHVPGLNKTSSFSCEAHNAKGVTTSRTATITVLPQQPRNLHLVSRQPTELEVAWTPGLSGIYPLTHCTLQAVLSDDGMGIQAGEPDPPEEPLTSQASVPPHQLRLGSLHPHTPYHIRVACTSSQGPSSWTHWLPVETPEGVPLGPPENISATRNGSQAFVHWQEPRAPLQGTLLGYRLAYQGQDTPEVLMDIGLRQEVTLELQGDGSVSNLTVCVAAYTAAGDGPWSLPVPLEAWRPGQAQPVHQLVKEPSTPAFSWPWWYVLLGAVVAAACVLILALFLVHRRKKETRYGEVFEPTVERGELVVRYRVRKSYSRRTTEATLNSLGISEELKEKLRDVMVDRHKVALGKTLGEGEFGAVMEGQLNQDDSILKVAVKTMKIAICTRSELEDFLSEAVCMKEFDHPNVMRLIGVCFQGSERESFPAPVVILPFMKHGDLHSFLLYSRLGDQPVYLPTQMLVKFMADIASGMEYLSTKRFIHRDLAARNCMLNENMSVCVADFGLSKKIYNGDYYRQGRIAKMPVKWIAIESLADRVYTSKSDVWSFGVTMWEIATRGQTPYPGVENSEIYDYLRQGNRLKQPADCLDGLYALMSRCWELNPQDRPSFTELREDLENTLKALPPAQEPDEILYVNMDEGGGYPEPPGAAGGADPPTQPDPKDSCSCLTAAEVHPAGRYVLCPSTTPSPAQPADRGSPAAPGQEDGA
Sequence (P40337 whole entry): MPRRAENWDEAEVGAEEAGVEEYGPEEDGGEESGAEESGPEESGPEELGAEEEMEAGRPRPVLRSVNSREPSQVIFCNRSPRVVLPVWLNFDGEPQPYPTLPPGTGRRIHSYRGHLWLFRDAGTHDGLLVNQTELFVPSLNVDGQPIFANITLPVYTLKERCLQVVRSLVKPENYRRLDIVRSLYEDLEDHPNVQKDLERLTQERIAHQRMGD

Row | SMILES | EC50 [µM]
2 | CCc1ccc2c(c1)c(=O)c(C(=O)Nc1ccc(Oc3ncnc4cc(OCCCC(=O)N[C@H](C(=O)N5C[C@H](O)C[C@H]5C(=O)NCc5ccc(-c6scnc6C)cc5)C(C)(C)C)c(OC)cc34)c(F)c1)c(C)n2C | > 10
3 | CCc1ccc2c(c1)c(=O)c(C(=O)Nc1ccc(Oc3ncnc4cc(OCCCCCCCCCCCC(=O)N[C@H](C(=O)N5C[C@H](O)C[C@H]5C(=O)NCc5ccc(-c6scnc6C)cc5)C(C)(C)C)c(OC)cc34)c(F)c1)c(C)n2C | > 10
4 | CCc1ccc2c(c1)c(=O)c(C(=O)Nc1ccc(Oc3ncnc4cc(OCCCCCCCCCC(=O)N[C@H](C(=O)N5C[C@H](O)C[C@H]5C(=O)NCc5ccc(-c6scnc6C)cc5)C(C)(C)C)c(OC)cc34)c(F)c1)c(C)n2C | > 10
5 | CCc1ccc2c(c1)c(=O)c(C(=O)Nc1ccc(Oc3ncnc4cc(OCCCCCCCC(=O)N[C@H](C(=O)N5C[C@H](O)C[C@H]5C(=O)NCc5ccc(-c6scnc6C)cc5)C(C)(C)C)c(OC)cc34)c(F)c1)c(C)n2C | > 10
6 | CCc1ccc2c(c1)c(=O)c(C(=O)Nc1ccc(Oc3ncnc4cc(OCCCCCC(=O)N[C@H](C(=O)N5C[C@H](O)C[C@H]5C(=O)NCc5ccc(-c6scnc6C)cc5)C(C)(C)C)c(OC)cc34)c(F)c1)c(C)n2C | > 10
7 | CCc1ccc2c(c1)c(=O)c(C(=O)Nc1ccc(Oc3ncnc4cc(OCC(=O)N[C@H](C(=O)N5C[C@H](O)C[C@H]5C(=O)NCc5ccc(-c6scnc6C)cc5)C(C)(C)C)c(OC)cc34)c(F)c1)c(C)n2C | > 10

test system: MDA-MB-231; assay: Antiproliferative activity against human MDA-MB-231 cells expressing AXL assessed as inhibition of cell growth incubated for 72 hrs by CCK8 assay; assay type: functional, cell-based; conditions: MDA-MB-231, 72 h

Row | SMILES | IC50 [µM]
8 | CCc1ccc2c(c1)c(=O)c(C(=O)Nc1ccc(Oc3ncnc4cc(OCCCCCC(=O)Nc5ccc6c(c5)CN(C5CCC(=O)N(C)C5=O)C6=O)c(OC)cc34)c(F)c1)c(C)n2C (centres undefined) | > 5

biological target: Protein cereblon/Tyrosine-protein kinase receptor UFO (Homo sapiens, UniProt P30530+Q96SW2); assay: PROTAC activity at CRBN/AXL in human MDA-MB-231 cells assessed as induction of AXL degradation incubated for 24 hrs by immunoblot analysis; assay type: cell-based; conditions: not given
Sequence (P30530 whole entry): as the sequence (P30530 whole entry) above
Sequence (Q96SW2 whole entry): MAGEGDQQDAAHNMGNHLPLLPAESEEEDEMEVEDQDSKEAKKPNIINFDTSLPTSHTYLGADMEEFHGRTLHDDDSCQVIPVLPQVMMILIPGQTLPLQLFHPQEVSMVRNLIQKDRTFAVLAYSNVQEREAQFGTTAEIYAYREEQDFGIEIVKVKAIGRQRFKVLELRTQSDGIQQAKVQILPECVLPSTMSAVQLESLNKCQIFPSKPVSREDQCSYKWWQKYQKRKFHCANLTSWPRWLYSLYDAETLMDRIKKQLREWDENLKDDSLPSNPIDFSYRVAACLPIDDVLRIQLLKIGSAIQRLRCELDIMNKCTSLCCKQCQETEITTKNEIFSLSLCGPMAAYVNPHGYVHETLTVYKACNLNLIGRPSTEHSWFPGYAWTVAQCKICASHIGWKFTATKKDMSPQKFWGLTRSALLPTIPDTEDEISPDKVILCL

Row | SMILES | EC50 [µM]
9 | CCc1ccc2c(c1)c(=O)c(C(=O)Nc1ccc(Oc3ncnc4cc(OCCCCCCCC(=O)Nc5cccc6c5C(=O)N(C5CCC(=O)NC5=O)C6=O)c(OC)cc34)c(F)c1)c(C)n2C (centres undefined) | > 10
10 | CCc1ccc2c(c1)c(=O)c(C(=O)Nc1ccc(Oc3ncnc4cc(OCCCCCC(=O)Nc5cccc6c5CN(C5CCC(=O)NC5=O)C6=O)c(OC)cc34)c(F)c1)c(C)n2C (centres undefined) | > 10
11 | CCc1ccc2c(c1)c(=O)c(C(=O)Nc1ccc(Oc3ncnc4cc(OCCCCCCCC(=O)Nc5ccc6c(c5)C(=O)N(C5CCC(=O)NC5=O)C6=O)c(OC)cc34)c(F)c1)c(C)n2C (centres undefined) | 0.108
12 | CCc1ccc2c(c1)c(=O)c(C(=O)Nc1ccc(Oc3ncnc4cc(OCCCCC(=O)Nc5cccc6c5C(=O)N(C5CCC(=O)NC5=O)C6=O)c(OC)cc34)c(F)c1)c(C)n2C (centres undefined) | > 10
13 | CCc1ccc2c(c1)c(=O)c(C(=O)Nc1ccc(Oc3ncnc4cc(OCCCCCC(=O)Nc5cccc6c5C(=O)N(C5CCC(=O)NC5=O)C6=O)c(OC)cc34)c(F)c1)c(C)n2C (centres undefined) | > 10
14 | CCc1ccc2c(c1)c(=O)c(C(=O)Nc1ccc(Oc3ncnc4cc(OCCCCCCCCCCCC(=O)Nc5cccc6c5C(=O)N(C5CCC(=O)NC5=O)C6=O)c(OC)cc34)c(F)c1)c(C)n2C (centres undefined) | > 10

Other lines, results leading:

Row | EC50 [µM] | SMILES
15 | > 10 | CCc1ccc2c(c1)c(=O)c(C(=O)Nc1ccc(Oc3ncnc4cc(OCCCCCC(=O)Nc5cccc6c5C(=O)N(C5CCC(=O)NC5=O)C6)c(OC)cc34)c(F)c1)c(C)n2C (centres undefined)
16 | > 10 | CCc1ccc2c(c1)c(=O)c(C(=O)Nc1ccc(Oc3ncnc4cc(OCCCCCCCCCC(=O)Nc5ccc6c(c5)C(=O)N(C5CCC(=O)NC5=O)C6=O)c(OC)cc34)c(F)c1)c(C)n2C (centres undefined)
17 | > 10 | CCc1ccc2c(c1)c(=O)c(C(=O)Nc1ccc(Oc3ncnc4cc(OCCCCCCCCCC(=O)Nc5cccc6c5C(=O)N(C5CCC(=O)NC5=O)C6=O)c(OC)cc34)c(F)c1)c(C)n2C (centres undefined)
18 | > 10 | CCc1ccc2c(c1)c(=O)c(C(=O)Nc1ccc(Oc3ncnc4cc(OCC(=O)Nc5cccc6c5C(=O)N(C5CCC(=O)NC5=O)C6=O)c(OC)cc34)c(F)c1)c(C)n2C (centres undefined)
19 | > 10 | CCc1ccc2c(c1)c(=O)c(C(=O)Nc1ccc(Oc3ncnc4cc(OCCCCCC(=O)Nc5ccc6c(c5)C(=O)N(C5CCC(=O)NC5=O)C6)c(OC)cc34)c(F)c1)c(C)n2C (centres undefined)
20 | 0.04 | CCc1ccc2c(c1)c(=O)c(C(=O)Nc1ccc(Oc3ncnc4cc(OCCCCCC(=O)Nc5ccc6c(c5)C(=O)N(C5CCC(=O)NC5=O)C6=O)c(OC)cc34)c(F)c1)c(C)n2C (centres undefined)
21 | > 10 | CCc1ccc2c(c1)c(=O)c(C(=O)Nc1ccc(Oc3ncnc4cc(OCCCCCCCCCCCC(=O)Nc5ccc6c(c5)C(=O)N(C5CCC(=O)NC5=O)C6=O)c(OC)cc34)c(F)c1)c(C)n2C (centres undefined)
22 | > 10 | CCc1ccc2c(c1)c(=O)c(C(=O)Nc1ccc(Oc3ncnc4cc(OCC(=O)Nc5ccc6c(c5)C(=O)N(C5CCC(=O)NC5=O)C6=O)c(OC)cc34)c(F)c1)c(C)n2C (centres undefined)
23 | > 10 | CCc1ccc2c(c1)c(=O)c(C(=O)Nc1ccc(Oc3ncnc4cc(OCCCCC(=O)Nc5ccc6c(c5)C(=O)N(C5CCC(=O)NC5=O)C6=O)c(OC)cc34)c(F)c1)c(C)n2C (centres undefined)

test system: MDA-MB-436; assay: Antiproliferative activity against human MDA-MB-436 cells expressing AXL assessed as inhibition of cell growth incubated for 72 hrs by CCK8 assay; assay type: functional, cell-based; conditions: MDA-MB-436, 72 h

Row | SMILES | IC50 [µM]
24 | CCc1ccc2c(c1)c(=O)c(C(=O)Nc1ccc(Oc3ncnc4cc(OCCCCCC(=O)Nc5ccc6c(c5)CN(C5CCC(=O)N(C)C5=O)C6=O)c(OC)cc34)c(F)c1)c(C)n2C (centres undefined) | > 5
